Laboratory results taken from ChEMBL document CHEMBL3243981, “Antileukemic activity of ungeremine and related compounds. Preparation of analogues of ungeremine by a practical photochemical reaction” (J Med Chem, 1978).
The source made the active and inactive calls. The calls are words filed in the database; no cut-off is given here.

Columns and labels:
[1] = system: Mus musculus; assay: Toxicity in mouse allografted with mouse P388 cells assessed as change in body weight at 100 mg/kg administered daily as single dose; format: organism-based; design: dose 100 mg/kg; conditions: in vivo
[2] = system: Mus musculus; assay: Toxicity in mouse allografted with mouse P388 cells assessed as change in body weight at 25 mg/kg administered daily as single dose; format: organism-based; design: dose 25 mg/kg; conditions: in vivo
[3] = system: P388; assay: Antileukemic activity against mouse P388 cells allografted in mouse assessed as host survival at 50 mg/kg administered daily as single dose; format: functional, organism-based; design: dose 50 mg/kg
[4] = system: Mus musculus; assay: Toxicity in mouse allografted with mouse P388 cells assessed as change in body weight at 50 mg/kg administered daily as single dose; format: organism-based; design: dose 50 mg/kg; conditions: in vivo
[5] = system: P388; assay: Antileukemic activity against mouse P388 cells allografted in mouse at 25 mg/kg administered daily as single dose relative to control; format: functional
[6] = system: P388; assay: Antileukemic activity against mouse P388 cells allografted in mouse at 50 mg/kg administered daily as single dose relative to control; format: functional
[7] = system: P388; assay: Antileukemic activity against mouse P388 cells allografted in mouse at 100 mg/kg administered daily as single dose relative to control; format: functional
[8] = system: P388; assay: Antileukemic activity against mouse P388 cells allografted in mouse assessed as host survival at 25 mg/kg administered daily as single dose; format: functional, organism-based; design: dose 25 mg/kg
[9] = system: P388; assay: Antileukemic activity against mouse P388 cells allografted in mouse at 18.8 mg/kg administered daily as single dose relative to control; format: functional
[10] = system: P388; assay: Antileukemic activity against mouse P388 cells allografted in mouse assessed as host survival at 12.5 mg/kg administered daily as single dose; format: functional, organism-based; design: dose 12.5 mg/kg
[11] = system: P388; assay: Antileukemic activity against mouse P388 cells allografted in mouse at 3.13 mg/kg administered daily as single dose relative to control; format: functional
[12] = system: P388; assay: Antileukemic activity against mouse P388 cells allografted in mouse at 6.25 mg/kg administered daily as single dose relative to control; format: functional
[13] = system: P388; assay: Antileukemic activity against mouse P388 cells allografted in mouse assessed as host survival at 18.8 mg/kg administered daily as single dose; format: functional, organism-based; design: dose 18.8 mg/kg
[14] = system: P388; assay: Antileukemic activity against mouse P388 cells allografted in mouse at 12.5 mg/kg administered daily as single dose relative to control; format: functional
[15] = system: Mus musculus; assay: Toxicity in mouse allografted with mouse P388 cells assessed as change in body weight at 12.5 mg/kg administered daily as single dose; format: organism-based; design: dose 12.5 mg/kg; conditions: in vivo
[16] = system: Mus musculus; assay: Toxicity in mouse allografted with mouse P388 cells assessed as change in body weight at 3.13 mg/kg administered daily as single dose; format: organism-based; design: dose 3.13 mg/kg; conditions: in vivo
[17] = system: P388; assay: Antileukemic activity against mouse P388 cells allografted in mouse assessed as host survival at 6.25 mg/kg administered daily as single dose; format: functional, organism-based; design: dose 6.25 mg/kg
[18] = system: Mus musculus; assay: Toxicity in mouse allografted with mouse P388 cells assessed as change in body weight at 18.8 mg/kg administered daily as single dose; format: organism-based; design: dose 18.8 mg/kg; conditions: in vivo
[19] = system: Mus musculus; assay: Toxicity in mouse allografted with mouse P388 cells assessed as change in body weight at 6.25 mg/kg administered daily as single dose; format: organism-based; design: dose 6.25 mg/kg; conditions: in vivo
[20] = system: P388; assay: Antileukemic activity against mouse P388 cells allografted in mouse assessed as host survival at 3.13 mg/kg administered daily as single dose; format: functional, organism-based; design: dose 3.13 mg/kg

SMILES | Activity [1] | Activity [2] | Survival [3] | Activity [4] | T/C [5] | T/C [6] | T/C [7] | Survival [8] | T/C [9] | Survival [10] | T/C [11] | T/C [12] | Survival [13] | T/C [14] | Activity [15] | Activity [16] | Survival [17] | Activity [18] | Activity [19] | Survival [20]
COc1cc2c[n+]3c4c(cccc4c2cc1OC)CC3.[Cl-] | -5.1 g | -0.9 g | Active | -1.7 g | 108% | 118% | 114% | Active |  |  |  |  |  |  |  |  |  |  |  | 
[Cl-].c1cc2c3c(c1)c1cc4c(cc1c[n+]3CCC2)OCO4 |  | -3.3 g | inactive |  | 120% |  |  |  | 132% | Active | 110% | 126% | Active | 129% | -1.9 g | -0.2 g | Active | -2.4 g | -1.7 g | Active
[O-]c1cc2c3c(c1)c1cc4c(cc1c[n+]3CC2)OCO4 [UNGEREMINE] |  | -2.1 g | Active | -3.9 g | 148% | 152% |  | Active |  | Active | 133% | 136% |  | 148% | -1.9 g | -0.7 g | Active |  | -0.7 g | Active
[Cl-].c1cc2c3c(c1)c1cc4c(cc1c[n+]3CC2)OCO4 [ANHYDROLYCORINIUM CHLORIDE] |  | -2.9 g |  |  | 153% |  |  | Active |  | Active |  | 127% |  | 142% | -2.1 g |  | Active |  | -1.5 g | 
COc1cc2c[n+](C)c3ccccc3c2cc1OC.[Cl-] | -3.8 g | -1 g | Active | -1.6 g | 121% | 130% | 123% | Active |  | Active |  |  |  | 113% | -1.1 g |  |  |  |  | 
Oc1cc2c3c(c1)c1cc4c(cc1c[n+]3CC2)OCO4.[Cl-] |  | -3.9 g |  |  | 164% |  |  |  |  | Active | 133% | 151% |  | 155% | -2.4 g | -0.7 g | Active |  | -1.7 g | Active
COc1cc2c[n+]3c4c(cccc4c2cc1OC)CCC3.[Cl-] |  | -0.1 g | Active | -3.2 g | 108% | 110% |  | Active |  | Active |  |  |  | 109% | -1.4 g |  |  |  |  | 
C[n+]1cc2cc3c(cc2c2ccccc21)OCO3.[Cl-] |  | -2.5 g |  |  | 151% |  |  | Active | 144% | Active | 126% | 129% | Active | 135% | -1 g | -0.3 g | Active | -1.3 g | -0.9 g | Active
COS(=O)(=O)[O-].C[n+]1cc2ccccc2c2ccccc21 |  | -3.2 g | Active | -6.4 g | 125% | 113% |  | Active |  | Active | 108% | 117% |  | 120% | -2.2 g | -0.8 g | Active |  | -1 g | Active
